Measured values: the supplement of paper PMC12463676, “Small-molecule dissolution of stress granules by redox modulation benefits ALS models” (Nature Chemical Biology, 2025)

Compound: NC(=O)CCCCC1CCSS1 [lipoamide]
Test: thermal stability z-score vs DMSO; higher = more thermally stabilized by treatment
Settings: HeLa; lipoamide concentration 100 µM; arsenate co-treatment: 1 mM arsenate 1 h
Procedure: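 Cellular thermal proteome profiling in HeLa cells. Cells were treated with 100 µM lipoamide for 1 h, with or without 1 mM arsenate for a further 1 h, then heated to ten temperatures (37-66.3 °C), and soluble protein was quantified by TMT mass spectrometry relative to 0.1% DMSO controls. The thermal stability score (sum of log2 fold changes minus the abundance score) was transformed to a z-score; mean of n = 3 experiments.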
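Also: each temperature applied for 3 min, abundance score taken as mean log2 fold change at the two lowest temperatures, z-score obtained by mean subtraction and division by SD.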

Chain of UniProt Q9H0W8 (Q9H0W8 whole entry): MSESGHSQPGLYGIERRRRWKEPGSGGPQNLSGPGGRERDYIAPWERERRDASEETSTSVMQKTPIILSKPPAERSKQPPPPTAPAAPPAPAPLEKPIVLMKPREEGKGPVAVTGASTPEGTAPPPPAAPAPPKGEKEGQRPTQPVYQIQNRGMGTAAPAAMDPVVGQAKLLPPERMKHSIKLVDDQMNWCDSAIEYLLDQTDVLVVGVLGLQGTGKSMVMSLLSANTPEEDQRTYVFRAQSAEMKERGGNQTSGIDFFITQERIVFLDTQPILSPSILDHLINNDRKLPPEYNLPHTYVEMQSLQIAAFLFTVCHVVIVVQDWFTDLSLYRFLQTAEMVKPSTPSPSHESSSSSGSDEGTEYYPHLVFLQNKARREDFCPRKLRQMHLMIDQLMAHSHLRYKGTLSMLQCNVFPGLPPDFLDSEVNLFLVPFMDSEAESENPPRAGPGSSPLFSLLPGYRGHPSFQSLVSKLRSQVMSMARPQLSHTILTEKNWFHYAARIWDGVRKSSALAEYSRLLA
Chain of UniProt Q9Y3Y2 (Q9Y3Y2 whole entry): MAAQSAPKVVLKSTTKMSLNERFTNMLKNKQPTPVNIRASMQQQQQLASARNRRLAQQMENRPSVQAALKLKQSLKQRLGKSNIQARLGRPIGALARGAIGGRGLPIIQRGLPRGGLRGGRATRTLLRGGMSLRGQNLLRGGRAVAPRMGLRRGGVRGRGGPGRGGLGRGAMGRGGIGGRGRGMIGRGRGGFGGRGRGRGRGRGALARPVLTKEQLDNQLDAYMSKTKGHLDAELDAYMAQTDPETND
Chain of UniProt Q9BVC6 (Q9BVC6 whole entry): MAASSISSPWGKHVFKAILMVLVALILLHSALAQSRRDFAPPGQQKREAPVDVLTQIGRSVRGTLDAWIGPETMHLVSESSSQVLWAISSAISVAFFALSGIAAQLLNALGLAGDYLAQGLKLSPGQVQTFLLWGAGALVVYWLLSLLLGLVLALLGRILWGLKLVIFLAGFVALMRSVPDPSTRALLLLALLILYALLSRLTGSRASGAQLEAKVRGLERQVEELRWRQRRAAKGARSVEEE
Chain of UniProt Q9BZZ5 (Q9BZZ5 whole entry): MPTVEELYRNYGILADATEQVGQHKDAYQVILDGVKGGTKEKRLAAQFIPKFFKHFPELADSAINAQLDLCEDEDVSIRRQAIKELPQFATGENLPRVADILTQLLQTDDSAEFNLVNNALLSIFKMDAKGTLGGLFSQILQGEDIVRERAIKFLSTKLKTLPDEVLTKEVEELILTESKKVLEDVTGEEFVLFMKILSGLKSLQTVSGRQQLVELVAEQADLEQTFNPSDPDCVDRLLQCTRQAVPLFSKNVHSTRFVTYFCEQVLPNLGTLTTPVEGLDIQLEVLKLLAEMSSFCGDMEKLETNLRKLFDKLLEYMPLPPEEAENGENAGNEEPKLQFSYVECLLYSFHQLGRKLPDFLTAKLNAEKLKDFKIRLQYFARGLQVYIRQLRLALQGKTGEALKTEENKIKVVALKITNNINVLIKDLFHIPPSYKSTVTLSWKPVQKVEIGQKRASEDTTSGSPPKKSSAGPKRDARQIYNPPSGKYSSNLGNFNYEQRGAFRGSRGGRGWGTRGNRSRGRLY
Chain of UniProt Q6WKZ4 (Q6WKZ4 whole entry): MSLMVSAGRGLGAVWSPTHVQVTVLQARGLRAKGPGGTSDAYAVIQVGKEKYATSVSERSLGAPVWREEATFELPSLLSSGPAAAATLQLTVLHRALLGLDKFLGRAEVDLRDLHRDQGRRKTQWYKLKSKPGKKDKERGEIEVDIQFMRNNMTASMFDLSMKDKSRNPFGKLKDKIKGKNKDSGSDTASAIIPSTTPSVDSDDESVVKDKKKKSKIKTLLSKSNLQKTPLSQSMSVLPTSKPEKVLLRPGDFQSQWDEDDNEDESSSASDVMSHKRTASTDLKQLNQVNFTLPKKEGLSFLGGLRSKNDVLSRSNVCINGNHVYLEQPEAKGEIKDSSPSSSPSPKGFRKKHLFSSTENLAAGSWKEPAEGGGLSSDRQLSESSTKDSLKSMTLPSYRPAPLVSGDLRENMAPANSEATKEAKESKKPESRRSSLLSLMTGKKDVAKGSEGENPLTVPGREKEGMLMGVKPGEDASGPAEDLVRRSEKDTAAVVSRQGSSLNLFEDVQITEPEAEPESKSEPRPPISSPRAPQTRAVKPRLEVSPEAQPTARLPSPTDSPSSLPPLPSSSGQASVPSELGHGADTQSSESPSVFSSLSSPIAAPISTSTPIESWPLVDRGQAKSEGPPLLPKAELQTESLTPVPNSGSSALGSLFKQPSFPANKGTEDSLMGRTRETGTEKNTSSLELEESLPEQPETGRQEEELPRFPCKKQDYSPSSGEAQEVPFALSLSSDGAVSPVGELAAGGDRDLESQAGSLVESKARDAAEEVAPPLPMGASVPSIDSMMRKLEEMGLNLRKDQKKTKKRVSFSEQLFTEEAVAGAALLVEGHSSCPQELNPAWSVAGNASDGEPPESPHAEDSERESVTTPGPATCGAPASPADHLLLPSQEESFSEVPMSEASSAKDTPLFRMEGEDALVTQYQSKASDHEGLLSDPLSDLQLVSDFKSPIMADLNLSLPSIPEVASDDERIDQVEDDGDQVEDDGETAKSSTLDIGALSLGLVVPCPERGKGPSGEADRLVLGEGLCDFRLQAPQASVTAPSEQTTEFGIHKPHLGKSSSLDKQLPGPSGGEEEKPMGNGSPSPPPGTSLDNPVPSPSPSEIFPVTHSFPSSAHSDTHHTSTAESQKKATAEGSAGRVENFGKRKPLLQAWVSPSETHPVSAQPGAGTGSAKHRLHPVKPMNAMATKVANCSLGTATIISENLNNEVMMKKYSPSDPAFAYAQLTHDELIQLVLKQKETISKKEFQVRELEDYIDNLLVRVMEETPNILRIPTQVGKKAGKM
Chain of UniProt Q13303 (Q13303 whole entry): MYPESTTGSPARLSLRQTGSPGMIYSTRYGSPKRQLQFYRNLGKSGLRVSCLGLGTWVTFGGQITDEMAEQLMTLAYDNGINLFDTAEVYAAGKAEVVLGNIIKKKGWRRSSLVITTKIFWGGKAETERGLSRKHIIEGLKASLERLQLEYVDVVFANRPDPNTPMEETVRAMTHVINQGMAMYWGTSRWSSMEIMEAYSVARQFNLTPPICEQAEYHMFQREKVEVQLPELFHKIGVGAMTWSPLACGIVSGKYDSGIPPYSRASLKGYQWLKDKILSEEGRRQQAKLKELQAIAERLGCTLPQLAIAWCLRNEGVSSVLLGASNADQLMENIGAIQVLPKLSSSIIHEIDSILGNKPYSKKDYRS
Chain of UniProt Q15526 (Q15526 whole entry): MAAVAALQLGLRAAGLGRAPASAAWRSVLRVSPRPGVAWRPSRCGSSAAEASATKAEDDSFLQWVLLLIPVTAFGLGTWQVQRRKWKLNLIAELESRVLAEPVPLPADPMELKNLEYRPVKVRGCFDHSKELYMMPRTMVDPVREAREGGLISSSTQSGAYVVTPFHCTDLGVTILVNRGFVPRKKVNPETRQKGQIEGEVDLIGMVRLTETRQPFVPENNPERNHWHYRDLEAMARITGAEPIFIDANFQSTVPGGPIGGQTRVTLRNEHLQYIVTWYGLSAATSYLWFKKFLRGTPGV
Chain of UniProt Q9BRG1 (Q9BRG1 whole entry): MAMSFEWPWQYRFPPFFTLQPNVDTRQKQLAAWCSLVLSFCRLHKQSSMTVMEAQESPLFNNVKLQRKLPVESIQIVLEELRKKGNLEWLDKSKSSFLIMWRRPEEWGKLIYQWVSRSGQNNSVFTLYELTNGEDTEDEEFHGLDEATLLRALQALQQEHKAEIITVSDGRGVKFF
Chain of UniProt Q6DD87 (Q6DD87 whole entry): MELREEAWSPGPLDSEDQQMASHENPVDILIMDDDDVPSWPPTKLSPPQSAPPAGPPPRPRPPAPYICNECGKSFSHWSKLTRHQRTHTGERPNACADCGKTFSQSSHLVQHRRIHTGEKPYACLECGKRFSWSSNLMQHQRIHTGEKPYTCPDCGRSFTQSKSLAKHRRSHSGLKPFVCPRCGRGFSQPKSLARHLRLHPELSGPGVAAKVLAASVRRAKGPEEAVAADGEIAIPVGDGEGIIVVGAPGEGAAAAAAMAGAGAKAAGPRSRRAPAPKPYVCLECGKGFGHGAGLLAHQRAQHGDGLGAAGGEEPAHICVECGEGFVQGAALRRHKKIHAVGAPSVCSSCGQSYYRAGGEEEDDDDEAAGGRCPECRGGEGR
Chain of UniProt O95396 (O95396 whole entry): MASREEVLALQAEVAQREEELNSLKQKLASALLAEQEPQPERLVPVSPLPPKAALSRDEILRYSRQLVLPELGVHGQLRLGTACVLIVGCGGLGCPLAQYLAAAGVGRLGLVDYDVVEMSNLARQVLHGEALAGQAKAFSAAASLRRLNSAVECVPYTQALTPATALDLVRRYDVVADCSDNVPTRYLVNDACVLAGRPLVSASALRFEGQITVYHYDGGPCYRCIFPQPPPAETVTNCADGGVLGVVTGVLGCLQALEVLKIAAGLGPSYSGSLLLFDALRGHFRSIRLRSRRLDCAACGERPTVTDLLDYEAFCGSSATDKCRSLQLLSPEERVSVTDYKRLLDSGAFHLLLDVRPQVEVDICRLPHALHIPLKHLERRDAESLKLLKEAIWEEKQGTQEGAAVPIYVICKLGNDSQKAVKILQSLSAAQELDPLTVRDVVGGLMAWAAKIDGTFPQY
Chain of UniProt P41240 (P41240 whole entry, looked up): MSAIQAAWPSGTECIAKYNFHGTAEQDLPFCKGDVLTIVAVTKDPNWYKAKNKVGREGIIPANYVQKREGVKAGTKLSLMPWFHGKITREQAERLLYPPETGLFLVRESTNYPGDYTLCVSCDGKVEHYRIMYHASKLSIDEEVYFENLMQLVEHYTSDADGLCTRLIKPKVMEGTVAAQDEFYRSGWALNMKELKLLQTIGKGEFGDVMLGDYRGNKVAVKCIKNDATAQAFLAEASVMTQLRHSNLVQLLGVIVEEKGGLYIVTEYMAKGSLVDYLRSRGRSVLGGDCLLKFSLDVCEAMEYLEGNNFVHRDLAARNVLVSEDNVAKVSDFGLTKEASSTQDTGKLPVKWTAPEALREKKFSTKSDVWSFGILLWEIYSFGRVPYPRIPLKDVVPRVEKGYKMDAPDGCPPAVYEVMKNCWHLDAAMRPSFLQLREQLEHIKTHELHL

Target	thermal stability z-score
DOCK6 (UniProt Q96HP0)	-0.406
MCCC1 (UniProt Q96RQ3)	-0.187
CCDC191 (UniProt Q8NCU4)	0.286
IMP3 (UniProt Q9NV31)	-0.323
VPS25 (UniProt Q9BRG1)	-0.593
DYNC1LI1 (UniProt Q9Y6G9)	-0.18
RABL3 (UniProt Q5HYI8)	-0.437
DAB2 (UniProt P98082)	0.216
DNAJB14 (UniProt Q8TBM8)	0.0418
EXOSC8 (UniProt Q96B26)	0.692
METTL1 (UniProt Q9UBP6)	0.351
EGLN1 (UniProt Q9GZT9)	0.176
RAB27B (UniProt O00194)	0.463
CSK (UniProt P41240)	0.116
SF1 (UniProt Q15637)	0.425
ARHGEF2 (UniProt Q92974)	-0.182
TYSND1 (UniProt Q2T9J0)	-0.12
KYNU (UniProt Q16719)	0.77
RQCD1 (UniProt Q92600)	-0.57
C17ORF80 (UniProt Q9BSJ5)	-1.48
API5 (UniProt Q9BZZ5)	0.11
TMEM109 (UniProt Q9BVC6)	0.0915
DHDDS (UniProt Q86SQ9)	1.01
CHTOP (UniProt Q9Y3Y2)	1.86

Target	thermal stability z-score
FUBP1 (UniProt Q96AE4)	0.139
TWISTNB (UniProt Q3B726)	-0.926
PSMA7 (UniProt O14818)	0.939
SMG9 (UniProt Q9H0W8)	-0.596
GGNBP2 (UniProt Q9H3C7)	0.141
PIGK (UniProt Q92643)	-1.32
COA6 (UniProt Q5JTJ3)	1.7
RAB11FIP1 (UniProt Q6WKZ4)	0.271
SPATS2 (UniProt Q86XZ4)	-0.0725
DPAGT1 (UniProt Q9H3H5)	-0.304
RPL32 (UniProt P62910)	0.158
ARHGEF16 (UniProt Q5VV41)	0.251
GGPS1 (UniProt O95749)	0.498
JMJD4 (UniProt Q9H9V9)	0.073
THUMPD3 (UniProt Q9BV44)	0.0954
ABR (UniProt Q12979)	-0.754
AP4M1 (UniProt O00189)	0.0799
NDUFA6 (UniProt P56556)	-0.164
ZNF787 (UniProt Q6DD87)	0.853
CS (UniProt O75390)	-0.341
ALG13 (UniProt Q9NP73)	0.336
RBM8A (UniProt Q9Y5S9)	-0.156
TES (UniProt Q9UGI8)	0.0136
SSR2 (UniProt P43308)	0.441

Target	thermal stability z-score
ACTR8 (UniProt Q9H981)	-0.154
SURF1 (UniProt Q15526)	-1.27
MAST2 (UniProt Q6P0Q8)	-0.0733
ADA (UniProt P00813)	0.792
CYBA (UniProt P13498)	0.0672
DIAPH1 (UniProt O60610)	0.466
ACOX1 (UniProt Q15067)	0.516
FKBPL (UniProt Q9UIM3)	0.222
MRPS5 (UniProt P82675)	-0.158
MOCS3 (UniProt O95396)	0.01
SOX13 (UniProt Q9UN79)	-0.169
POMGNT1 (UniProt Q8WZA1)	-0.429
MLYCD (UniProt O95822)	0.771
PRPSAP2 (UniProt O60256)	-0.04
TRAPPC2L (UniProt Q9UL33)	-0.426
PINX1 (UniProt Q96BK5)	-0.717
KCMF1 (UniProt Q9P0J7)	-0.251
KCNAB2 (UniProt Q13303)	0.221
PSMB7 (UniProt Q99436)	1.04
NOP2 (UniProt P46087)	0.976
WDR73 (UniProt Q6P4I2)	0.0525
RILP (UniProt Q96NA2)	-0.0778
CD2BP2 (UniProt O95400)	0.994

Same assay, conditions: HeLa; lipoamide concentration 100 µM; arsenate co-treatment: none

Target	thermal stability z-score
DOCK6 (UniProt Q96HP0)	-0.347
MCCC1 (UniProt Q96RQ3)	-0.191
CCDC191 (UniProt Q8NCU4)	-0.0683
IMP3 (UniProt Q9NV31)	-0.228
VPS25 (UniProt Q9BRG1)	-0.349
DYNC1LI1 (UniProt Q9Y6G9)	-0.1
RABL3 (UniProt Q5HYI8)	-0.307
DAB2 (UniProt P98082)	0.404
DNAJB14 (UniProt Q8TBM8)	0.157
EXOSC8 (UniProt Q96B26)	-0.359
METTL1 (UniProt Q9UBP6)	0.439
EGLN1 (UniProt Q9GZT9)	0.423
RAB27B (UniProt O00194)	0.0912
CSK (UniProt P41240)	0.433
SF1 (UniProt Q15637)	0.249
ARHGEF2 (UniProt Q92974)	0.0779
TYSND1 (UniProt Q2T9J0)	-0.377
KYNU (UniProt Q16719)	0.403
RQCD1 (UniProt Q92600)	-0.143
C17ORF80 (UniProt Q9BSJ5)	-1.08
API5 (UniProt Q9BZZ5)	0.124
TMEM109 (UniProt Q9BVC6)	0.27
DHDDS (UniProt Q86SQ9)	0.391
CHTOP (UniProt Q9Y3Y2)	0.726

Target	thermal stability z-score
FUBP1 (UniProt Q96AE4)	0.157
TWISTNB (UniProt Q3B726)	0.0342
PSMA7 (UniProt O14818)	0.898
SMG9 (UniProt Q9H0W8)	-0.49
GGNBP2 (UniProt Q9H3C7)	0.168
PIGK (UniProt Q92643)	-1.34
COA6 (UniProt Q5JTJ3)	1.85
RAB11FIP1 (UniProt Q6WKZ4)	-0.127
SPATS2 (UniProt Q86XZ4)	0.644
DPAGT1 (UniProt Q9H3H5)	0.836
RPL32 (UniProt P62910)	-0.028
ARHGEF16 (UniProt Q5VV41)	-0.0771
GGPS1 (UniProt O95749)	0.521
JMJD4 (UniProt Q9H9V9)	0.027
THUMPD3 (UniProt Q9BV44)	-0.489
ABR (UniProt Q12979)	-0.915
AP4M1 (UniProt O00189)	-0.0232
NDUFA6 (UniProt P56556)	-0.00891
ZNF787 (UniProt Q6DD87)	1.17
CS (UniProt O75390)	0.0055
ALG13 (UniProt Q9NP73)	0.571
RBM8A (UniProt Q9Y5S9)	0.28
TES (UniProt Q9UGI8)	-0.287
SSR2 (UniProt P43308)	-0.158

Target	thermal stability z-score
ACTR8 (UniProt Q9H981)	-0.0898
SURF1 (UniProt Q15526)	-0.521
MAST2 (UniProt Q6P0Q8)	-0.0383
ADA (UniProt P00813)	0.403
CYBA (UniProt P13498)	0.232
DIAPH1 (UniProt O60610)	0.801
ACOX1 (UniProt Q15067)	0.379
FKBPL (UniProt Q9UIM3)	0.087
MRPS5 (UniProt P82675)	0.0282
MOCS3 (UniProt O95396)	-0.0171
SOX13 (UniProt Q9UN79)	0.00372
POMGNT1 (UniProt Q8WZA1)	0.0715
MLYCD (UniProt O95822)	0.713
PRPSAP2 (UniProt O60256)	-0.392
TRAPPC2L (UniProt Q9UL33)	0.338
PINX1 (UniProt Q96BK5)	-0.225
KCMF1 (UniProt Q9P0J7)	-0.483
KCNAB2 (UniProt Q13303)	0.281
PSMB7 (UniProt Q99436)	0.99
NOP2 (UniProt P46087)	-0.163
WDR73 (UniProt Q6P4I2)	-0.0893
RILP (UniProt Q96NA2)	0.284
CD2BP2 (UniProt O95400)	0.894

Compound: O=[As]([O-])(O)O.[K+] [potassium arsenate]
Test: as above
Settings: HeLa; arsenate concentration 1 mM
Procedure: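 Cellular thermal proteome profiling in HeLa cells treated with 1 mM arsenate for 1 h (DMSO pretreatment), heated to ten temperatures (37-66.3 °C). Soluble protein was quantified by TMT mass spectrometry relative to DMSO controls; the thermal stability score was transformed to a z-score; mean of n = 3 experiments.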

Target	thermal stability z-score
DOCK6 (UniProt Q96HP0)	-0.391
MCCC1 (UniProt Q96RQ3)	-0.585
CCDC191 (UniProt Q8NCU4)	-0.189
IMP3 (UniProt Q9NV31)	0.389
VPS25 (UniProt Q9BRG1)	0.0183
DYNC1LI1 (UniProt Q9Y6G9)	0.463
RABL3 (UniProt Q5HYI8)	-0.0747
DAB2 (UniProt P98082)	1.73
DNAJB14 (UniProt Q8TBM8)	-0.17
EXOSC8 (UniProt Q96B26)	-0.573
METTL1 (UniProt Q9UBP6)	0.207
EGLN1 (UniProt Q9GZT9)	1.64
RAB27B (UniProt O00194)	0.58
CSK (UniProt P41240)	-0.218
SF1 (UniProt Q15637)	0.681
ARHGEF2 (UniProt Q92974)	0.444
TYSND1 (UniProt Q2T9J0)	-0.646
KYNU (UniProt Q16719)	0.0266
RQCD1 (UniProt Q92600)	0.74
C17ORF80 (UniProt Q9BSJ5)	-0.529
API5 (UniProt Q9BZZ5)	0.0226
TMEM109 (UniProt Q9BVC6)	0.115
DHDDS (UniProt Q86SQ9)	0.205
CHTOP (UniProt Q9Y3Y2)	0.73

Target	thermal stability z-score
FUBP1 (UniProt Q96AE4)	0.0234
TWISTNB (UniProt Q3B726)	-1.57
PSMA7 (UniProt O14818)	0.38
SMG9 (UniProt Q9H0W8)	-0.274
GGNBP2 (UniProt Q9H3C7)	-1.84
PIGK (UniProt Q92643)	-0.123
COA6 (UniProt Q5JTJ3)	0.756
RAB11FIP1 (UniProt Q6WKZ4)	-0.162
SPATS2 (UniProt Q86XZ4)	-0.00843
DPAGT1 (UniProt Q9H3H5)	-0.109
RPL32 (UniProt P62910)	-0.93
ARHGEF16 (UniProt Q5VV41)	-0.201
GGPS1 (UniProt O95749)	-0.212
JMJD4 (UniProt Q9H9V9)	0.0203
THUMPD3 (UniProt Q9BV44)	0.37
ABR (UniProt Q12979)	-0.555
AP4M1 (UniProt O00189)	-0.173
NDUFA6 (UniProt P56556)	0.505
ZNF787 (UniProt Q6DD87)	0.223
CS (UniProt O75390)	0.561
ALG13 (UniProt Q9NP73)	-0.739
RBM8A (UniProt Q9Y5S9)	0.0981
TES (UniProt Q9UGI8)	-4.89
SSR2 (UniProt P43308)	0.191

Target	thermal stability z-score
ACTR8 (UniProt Q9H981)	-0.347
SURF1 (UniProt Q15526)	0.165
MAST2 (UniProt Q6P0Q8)	0.00193
ADA (UniProt P00813)	-0.000857
CYBA (UniProt P13498)	0.653
DIAPH1 (UniProt O60610)	-0.58
ACOX1 (UniProt Q15067)	0.389
FKBPL (UniProt Q9UIM3)	-0.0646
MRPS5 (UniProt P82675)	0.0198
MOCS3 (UniProt O95396)	-0.0988
SOX13 (UniProt Q9UN79)	-0.618
POMGNT1 (UniProt Q8WZA1)	-0.0541
MLYCD (UniProt O95822)	0.837
PRPSAP2 (UniProt O60256)	-0.637
TRAPPC2L (UniProt Q9UL33)	-0.119
PINX1 (UniProt Q96BK5)	-2.03
KCMF1 (UniProt Q9P0J7)	0.636
KCNAB2 (UniProt Q13303)	0.237
PSMB7 (UniProt Q99436)	0.481
NOP2 (UniProt P46087)	-0.016
WDR73 (UniProt Q6P4I2)	-0.351
RILP (UniProt Q96NA2)	0.0653
CD2BP2 (UniProt O95400)	0.94
